A short description of data set [1]: Clearance in Beagle dog at 1 mg/kg, iv. The class given is ADME, organism-based, Canis lupus familiaris. Conditions: in vivo.
A short description of data set [2]: Ratio of drug concentration in brain to plasma in C57BL/6 mouse measured at 5 mins. The class given is ADME, organism-based. Conditions: read-out: BPR.
Data set [3] is described as follows: In vivo inhibition of GalCer de novo synthesis in PN14 to PN21 days C57BL/6 mouse brain assessed as reduction in [13C] galactose incorporation into GalCer at 30 mg/kg, po bid for 2 days and single dose at day 3 treated 1 hr prior to intraperitoneal injection of [13C] galactose measured after 5 hrs of last dose relative to control. In kind it is functional. Conditions: C57BL/6, 72 h, time 3 day.

The nature of data set [4]: AUC (0 to last) in Sprague-Dawley rat at 3 mg/kg, po. The class given is ADME, organism-based. Particulars: in vivo. Details: time 0 - last, route oral, dose 3 mg/kg.
The nature of data set [5]: Clearance in Sprague-Dawley rat at 1 mg/kg, iv. The class given is ADME, organism-based. Conditions: in vivo.
Data set [6] is described as follows: In vivo inhibition of GalCer de novo synthesis in PN14 to PN21 days C57BL/6 mouse brain assessed as reduction in [13C] galactose incorporation into GalCer at 10 mg/kg, po bid for 2 days and single dose at day 3 treated 1 hr prior to intraperitoneal injection of [13C] galactose measured after 5 hrs of last dose relative to control. In kind it is functional. Particulars: C57BL/6, 72 h, time 3 day.

The nature of data set [7]: Volume of distribution at steady state in Sprague-Dawley rat at 1 mg/kg, iv. The class given is ADME, organism-based. Particulars: in vivo, read-out: Vdss.
Another data set deals with Mus musculus. Briefly: (§1) In vivo inhibition of SFT de novo synthesis in po dosed adult C57BL/6 mouse kidney assessed as reduction in [13C] galactose incorporation into SFT treated with compound for 1 hr prior to intraperitoneal injection of [13C] galactose measured after 5 hrs of compound administration. The class given is functional.
Data set [8] is described as follows: as §1. In kind it is functional.
Data set [9] in a line: Cmax in Beagle dog at 3 mg/kg, po. In kind it is ADME, organism-based, Canis lupus familiaris. On the set-up: route oral, dose 3 mg/kg. Conditions: in vivo.
Data set [10] in a line: Tmax in Sprague-Dawley rat at 3 mg/kg, po. The class given is ADME, organism-based. Conditions: in vivo.
Data set [11] can be described thus: Drug uptake in C57BL/6 mouse brain at 3 mg/kg, iv measured at 5 mins. Particulars: read-out: Drug uptake. In kind it is ADME, organism-based.
The nature of data set [12]: Apparent permeability of the compound at pH 6.5 to 7.4 by PAMPA. The class given is ADME. (In general: PAMPA measures passive passage across an artificial lipid membrane.)
The nature of data set [13]: Oral bioavailability in C57BL/6 mouse at 3 mg/kg. The class given is ADME, organism-based. Particulars: in vivo.
Data set [14] can be described thus: In vivo inhibition of SFT de novo synthesis in PN14 to PN21 days C57BL/6 mouse brain assessed as reduction in [13C] galactose incorporation into SFT at 30 mg/kg, po bid for 2 days and single dose at day 3 treated 1 hr prior to intraperitoneal injection of [13C] galactose measured after 5 hrs of last dose relative to control. The class given is functional. Conditions: C57BL/6, 72 h, time 3 day.

Data set [15] addresses T1, 2-hydroxyacylsphingosine 1-beta-galactosyltransferase (Mus musculus, UniProt Q64676).
T1 sequence (Q64676 whole entry): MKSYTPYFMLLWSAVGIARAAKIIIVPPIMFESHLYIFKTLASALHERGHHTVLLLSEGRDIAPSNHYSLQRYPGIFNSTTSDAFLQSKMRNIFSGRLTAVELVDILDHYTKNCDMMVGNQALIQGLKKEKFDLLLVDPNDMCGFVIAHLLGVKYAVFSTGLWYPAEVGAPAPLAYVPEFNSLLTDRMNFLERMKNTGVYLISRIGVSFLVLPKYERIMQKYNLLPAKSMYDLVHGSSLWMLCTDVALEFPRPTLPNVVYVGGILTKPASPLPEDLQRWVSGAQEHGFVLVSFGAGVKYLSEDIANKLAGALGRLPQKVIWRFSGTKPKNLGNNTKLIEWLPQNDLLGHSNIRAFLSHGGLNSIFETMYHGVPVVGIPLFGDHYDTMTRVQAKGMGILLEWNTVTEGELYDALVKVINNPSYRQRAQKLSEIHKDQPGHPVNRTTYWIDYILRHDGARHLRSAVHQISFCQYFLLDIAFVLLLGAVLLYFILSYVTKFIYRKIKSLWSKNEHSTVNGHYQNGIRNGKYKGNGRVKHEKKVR
Briefly: Inhibition of mouse UGT8 assessed as redcution in SFT accumulation.

The nature of data set [16]: In vivo inhibition of GalCer de novo synthesis in adult C57BL/6 mouse kidney assessed as reduction in [13C] galactose incorporation into GalCer at 1 mg/kg, po via gavage treated with compound for 1 hr prior to intraperitoneal injection of [13C] galactose measured after 5 hrs of compound administration relative to control. The class given is functional.
Data set [17] is described as follows: In vivo inhibition of SFT de novo synthesis in PN14 to PN21 days C57BL/6 mouse brain assessed as reduction in [13C] galactose incorporation into SFT at 3 mg/kg, po bid for 2 days and single dose at day 3 treated 1 hr prior to intraperitoneal injection of [13C] galactose measured after 5 hrs of last dose relative to control. In kind it is functional. Conditions: C57BL/6, 72 h, time 3 day.

The target in data set [18] is T2, UDP-glucuronosyltransferase 1A1 (Homo sapiens, UniProt P22309).
T2 sequence (P22309 whole entry): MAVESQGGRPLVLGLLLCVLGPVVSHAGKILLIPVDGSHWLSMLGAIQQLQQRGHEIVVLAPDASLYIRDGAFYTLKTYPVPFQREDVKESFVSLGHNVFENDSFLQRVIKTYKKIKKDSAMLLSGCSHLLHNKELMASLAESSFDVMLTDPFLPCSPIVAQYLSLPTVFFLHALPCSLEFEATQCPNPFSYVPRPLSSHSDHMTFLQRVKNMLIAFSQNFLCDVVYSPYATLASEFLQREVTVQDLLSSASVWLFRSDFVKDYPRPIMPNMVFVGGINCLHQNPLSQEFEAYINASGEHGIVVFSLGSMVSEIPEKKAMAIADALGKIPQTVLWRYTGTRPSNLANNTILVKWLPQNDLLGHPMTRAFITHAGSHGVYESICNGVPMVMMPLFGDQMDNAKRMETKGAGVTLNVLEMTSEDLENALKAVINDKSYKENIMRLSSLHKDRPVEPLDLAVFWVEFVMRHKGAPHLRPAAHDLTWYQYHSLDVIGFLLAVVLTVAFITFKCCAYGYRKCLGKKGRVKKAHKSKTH
Briefly: Inhibition of UGT1A1 (unknown origin). In kind it is ADME.

A short description of data set [19]: Tmax in Beagle dog at 3 mg/kg, po. The class given is ADME, organism-based, Canis lupus familiaris. Particulars: in vivo.
Data set [20] is described as follows: Oral bioavailability in Beagle dog at 3 mg/kg. In kind it is ADME, organism-based, Canis lupus familiaris. Particulars: in vivo.
Data set [21] can be described thus: In vivo inhibition of SFT de novo synthesis in adult C57BL/6 mouse kidney assessed as reduction in [13C] galactose incorporation into SFT at 0.3 mg/kg, po via gavage treated with compound for 1 hr prior to intraperitoneal injection of [13C] galactose measured after 5 hrs of compound administration relative to control. In kind it is functional.
The nature of data set [22]: Volume of distribution at steady state in Beagle dog at 1 mg/kg, iv. In kind it is ADME, organism-based, Canis lupus familiaris. Particulars: in vivo, read-out: Vdss.
Data set [23] is described as follows: In vivo inhibition of GalCer de novo synthesis in adult C57BL/6 mouse kidney assessed as reduction in [13C] galactose incorporation into GalCer at 3 mg/kg, po via gavage treated with compound for 1 hr prior to intraperitoneal injection of [13C] galactose measured after 5 hrs of compound administration relative to control. The class given is functional.

By clearance is commonly meant the rate of elimination divided by the concentration. A low value points to inefficient removal. A word on the inhibition in vivo: it is the relative decrease from the control value, in per cent. Usually AUC(0-t) stands for the area under the concentration-time curve up to a stated or last time point. Low values mean less exposure, high ones more exposure. One may read the ED50 as the dose at which the effect has come halfway, by size or by number of responders. For orientation: Cmax means the maximum level reached in the sampled fluid or tissue. By Tmax is commonly meant the time at which the peak concentration occurs. In general, Papp refers to a coefficient for how fast a substance crosses the barrier. Broadly, the bioavailability is dose-corrected exposure relative to a reference, in per cent. Broadly, the IC50 is the midpoint of a concentration-inhibition curve. For `CNC(=O)c1csc2c(C(F)(F)F)cc(N3CCC(OC(=O)N[C@@H](C)COC(F)(F)F)CC3)nc12`, the clearance in [1] was determined as 6.32 mL/min/kg; in data set [5] it was 6.52 mL/min/kg. The Kp at 5 min in data set [2] is 0.69. The values for the inhibition in vivo at 30 mg/kg in data set [3] and in data set [14] were 94% and 98%, respectively. For the same compound, the AUC(0-t) in data set [4] was 3060 ng·h/mL. Besides, in [6], the inhibition in vivo at 10 mg/kg is 94%. Moreover, the Vd is 1.52 L/kg in data set [7] and 3.32 L/kg in data set [22]. Moreover, the inhibition entry in the data set with Mus musculus was “Dose-dependent effect”. In data set [8], the ED50 is 1 mg/kg. This compound also registered a Cmax in data set [9] of 693 ng/mL. Moreover, the Tmax in data set [10] was found to be 49.8 min; in data set [19], 1.33 h. Also, in [11], the concentration at 5 min came out at 2050 ng/mL. In addition, the Papp in data set [12] is above 80 ×10⁻⁶ cm/s. Moreover, the bioavailability came out at 34% in [13] and 52% in data set [20]. The IC50 in data set [15] is 0.3 nM; in data set [18] it was above 10 µM. Also, in data set [16], the inhibition in vivo at 1 mg/kg was found to be 43%. In addition, the inhibition in vivo at 3 mg/kg in [17] came out at 92%; in data set [23], 72%. Further, the inhibition in vivo at 0.3 mg/kg in [21] was found to be 29%.

Source of the values: ChEMBL document CHEMBL4725449, “Brain Penetrable Inhibitors of Ceramide Galactosyltransferase for the Treatment of Lysosomal Storage Disorders” (ACS Med Chem Lett, 2020).
